Laboratory results taken from patent US9939427B2, “Method for evaluating the scent performance of perfumes or perfume mixtures” (Symrise AG, priority 2013, dated 2018).
“Also recorded” adds a separate entry of the source.

Experiments:
OR4C3 = target: T1, OR4C3 (Homo sapiens, UniProt Q8NH37); experiment: Ca-imaging of OR4C3-transfected HEK293 cells; format: cell-based; parameters: key: ▪: 18 olfactory receptors responded to 32 odorants in related with specific anosmia; details: individual odorant 200 μM, significant response p<0.05
T1 construct: specific primers, which amplify the complete open reading frame; expressed in transfected cells; host or cells: HEK293
T1 sequence (Q8NH37 whole entry): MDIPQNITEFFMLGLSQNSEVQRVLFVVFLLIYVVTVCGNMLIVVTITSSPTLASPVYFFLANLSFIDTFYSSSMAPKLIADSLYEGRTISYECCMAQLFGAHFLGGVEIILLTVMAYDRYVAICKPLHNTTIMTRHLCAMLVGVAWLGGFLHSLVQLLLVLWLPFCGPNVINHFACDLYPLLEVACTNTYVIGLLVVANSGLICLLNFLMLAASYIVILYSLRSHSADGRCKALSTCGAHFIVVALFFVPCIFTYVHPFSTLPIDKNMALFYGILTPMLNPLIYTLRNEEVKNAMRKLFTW
Protocol: (§1) HEK293 cells were cultivated in Petri dishes (Ø35 mm) as previously described (Benbernou et al. 2007). We grow up HEK293 cells in culture medium containing standard DMEM with 10% heat-inactivated fetal bovine serum, 2 mM L-glutamine, 100 units/ml penicillin, and 100 units/ml streptomycin in a humidified atmosphere (37° C., 5% CO2). After 2-3 days, the transfection process was carried out, whereby the cell culture was 70-80% confluent. The calciumphosphate method was applied to transfect DNA plasmid transiently in HEK293 cells in case of Ca-imaging method.
(§2) Calcium cations and phosphate anions created crystal precipitations coupled with DNA which could invade into the cells through endocytosis. […]
(§3) Calcium imaging of the transfected HEK293 cells was done by using chambers determinate an inverted microscope (Olympus; IX70) using a 10× objective (CPIanFL N Olympus). Fluorescence emission was determined every 4 s by using a CCD camera (Charge Coupled Device, C9100 Hamamatsu). […] Odorants were manually monitored to drop each 4-5 s to transfected cells. […]
(§4) In experiments, Fura-2 Acetoxymethylester (Fura-2/AM) was applied. […] According to this feature, the analysis of 340/380 nm excitation ratio for Fura-2 allows to quantify intracellular calcium levels. […]

OR10C1 = target: T2, OR10C1 (Homo sapiens, UniProt Q96KK4); experiment: Ca-imaging of OR10C1-transfected HEK293 cells; format: cell-based; parameters: key: ▪: 18 olfactory receptors responded to 32 odorants in related with specific anosmia; details: individual odorant 200 μM, significant response p<0.05
T2 construct: specific primers, which amplify the complete open reading frame; expressed in transfected cells; host or cells: HEK293
T2 sequence (Q96KK4 whole entry): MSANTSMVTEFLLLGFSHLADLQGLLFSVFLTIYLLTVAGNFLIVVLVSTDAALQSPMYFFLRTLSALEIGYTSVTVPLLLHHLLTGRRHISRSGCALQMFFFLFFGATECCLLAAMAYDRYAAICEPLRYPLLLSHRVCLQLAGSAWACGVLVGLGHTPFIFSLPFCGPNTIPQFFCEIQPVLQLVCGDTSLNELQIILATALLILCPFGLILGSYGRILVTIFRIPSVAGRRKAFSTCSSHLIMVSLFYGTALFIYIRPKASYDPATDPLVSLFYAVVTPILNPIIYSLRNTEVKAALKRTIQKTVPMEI
Protocol: as §1, §2, §3, §4

OR1B1 = target: T3, OR1B1 (Homo sapiens, UniProt Q8NGR6); experiment: Ca-imaging of OR1B1-transfected HEK293 cells; format: cell-based; parameters: key to OR1B1 responded to odorant: ▪: 18 olfactory receptors responded to 32 odorants in related with specific anosmia; details: for Number of cell responses of OR1B1 (FIG. 8): 200 μM, approximately 2000 cells in three times of measuring, steroid comparison; for Response of OR1B1 to odorant, in words: single odorants 200 μM; for Number of cell responses, Experiment (OR1B1): odorant 200 μM, approximately 2000 transfected cells in three times of measuring (Table 4, FIG. 5)
T3 construct: specific primers, which amplify the complete open reading frame; expressed in transfected cells; host or cells: HEK293
T3 sequence (Q8NGR6 1-317): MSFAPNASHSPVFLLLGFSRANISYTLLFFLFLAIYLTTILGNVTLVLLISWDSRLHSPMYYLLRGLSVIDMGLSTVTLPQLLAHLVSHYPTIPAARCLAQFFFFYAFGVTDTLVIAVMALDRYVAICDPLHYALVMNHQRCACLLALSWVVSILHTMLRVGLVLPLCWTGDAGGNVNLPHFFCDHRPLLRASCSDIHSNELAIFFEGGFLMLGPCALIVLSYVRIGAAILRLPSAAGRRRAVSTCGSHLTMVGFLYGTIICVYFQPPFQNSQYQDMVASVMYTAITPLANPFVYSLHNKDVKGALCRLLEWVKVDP
Protocol: as §1
(§5) Calcium cations and phosphate anions created crystal precipitations coupled with DNA which could invade into the cells through endocytosis. Cells were transiently transfected with plasmid DNA which consists of pCI expression vector and PCR-amplified full-length cDNA of olfactory receptors candidates, and also Gα15, RTP1, Myr-Ric8A, HSC70, and m-Cherry as cofactors. The precipitation could be created after 15-20 min, with dropping the transfection solution on HEK293 cells. Before measuring by Ca-imaging cells were incubated 48-60 hours at 370 C, 5% CO2. Cationic liposome-mediated transfection method was applied to transfect DNA plasmid transiently in HANA3A cells in case of CRE-Luciferase and CRE-SEAP assays.
(§6) Calcium imaging of the transfected HEK293 cells was done by using chambers determinate an inverted microscope (Olympus; IX70) using a 10× objective (CPIanFL N Olympus). Fluorescence emission was determined every 4 s by using a CCD camera (Charge Coupled Device, C9100 Hamamatsu). The capillary tube which was responsible to supply odorants was generated closely above the cells. The columns filled with odorants, DMSO and ATP. Odorants were manually monitored to drop each 4-5 s to transfected cells. Solutions with drop wise form spread on HEK293 cells in 35 mm dishes.
(§7) In experiments, Fura-2 Acetoxymethylester (Fura-2/AM) was applied. The non-polar Fura2/AM is fluorescent but not yet calcium-sensitive. Once diffuses into cell plasma, Fura-2/AM is hydrolyzed to Fura-2 which is calcium-sensitive and functions as Ca2+ chelator. Regardless of the presence of calcium, Fura-2 emits at the wavelength of 510 nm. Once Fura-2 binds to free intracellular Ca2+ in cell plasma, its ratio of excitation at wavelengths of 340 nm and 380 nm is changed and correlated to the amount of intracellular Ca2+. According to this feature, the analysis of 340/380 nm excitation ratio for Fura-2 allows to quantify intracellular calcium levels.
(§8) In preparation for Ca-imaging measurements, transfected HEK293 cells were added 3 it Fura2/AM (3 μM) and incubated 30-45 min at 370 C, 5% CO2. After this step, experiments were carried out in a dark condition (Fura-2 is light-sensitive). After the incubation, medium of cell culture was replaced with 2 ml Ringer's solution.
(§9) Odorants were freshly prepared with DMSO as 1 M stocks solutions. Six mixtures (200 μM each chemical) were applied to cells sequentially (20 s each mixture/30 s Ringer). Those ORs tested with single odorants that had generated a response to odorant mixture group previously. Odorants were prepared in 100-200 μM concentration.
(§10) Ringer's solution was used for washing cells between measuring by two different odorants. Positive response was determined by the timing of the response, the strength of the response (more than twofold higher than the noise amplitude of the baseline), and the shape of the response curve (sharp rise in curve with gradual recovery). The typical shape of response curves was established by observing responses to repeated stimulation with 200 μM of odorants. After testing with single odorants at 100 μM, stimulating odorants were often retested at 200 μM concentrations. To confirm the result of every receptor that produced a significant response curves, the experiment was repeated for twelve times. Finally, cells were exposed to ATP (0.25 mM) which could activate P2Y receptor channel and induce Ca2+ influx into cells. […]

[1] = tested on: HEK293 cells transfected with all cofactors and pCI plasmids without ORs; experiment: Ca-imaging of control HEK293 cells without OR; format: cell-based; details: for Number of cell responses in controls (FIG. 8, 11, 12): 200 μM, steroid comparison
Protocol: as §1, §5, §6, §7, §8, §9, §10

OR1B1-574 = target: T4, OR1B1-574 (Homo sapiens, UniProt Q8NGR6); experiment: Ca-imaging of mutant OR1B1-574 in HEK293 cells; format: cell-based; details: 200 μM, applied for 20 seconds
T4 construct: Rho-tag (N); expressed in transfected cells; host or cells: HEK293
Excerpt: (§11) Mutations were introduced for OR1B1 and OR10Q1 by Overlap Extension PCR (OEP). […] Flanking primers in combination with internal primers provided mutated gene segments, Full length primers included EcoRI and NotI restriction sites for further cloning into pCI expression vector. Site-directed mutations were selected for base of minor allele frequency of nucleotide.
(§12) In mutagenesis by overlap extension PCR method, initial PCRs provided mutated gene segments, with overlapping complementary 3′ ends carrying desired point mutation that were then mixed and used as template for a subsequent PCR to generate the full-length product. Overlapping strands of these intermediate products hybridize at this 3′ region in a subsequent PCR and are extended to generate the full-length product amplified by flanking primers; this shown in FIG. 2. […]
as §3, §4

OR1B1-688 = experiment: Ca-imaging of mutant OR1B1-688 in HEK293 cells; format: cell-based, human; details: 200 μM, applied for 20 seconds
Excerpt: as §11, §12, §3, §4

OR1B1-789 = target: T5, OR1B1-789 (Homo sapiens, UniProt Q8NGR6, C262W); experiment: Ca-imaging of mutant OR1B1-789 in HEK293 cells; format: cell-based; details: 200 μM, applied for 20 seconds
T5 construct: Full length primers included EcoRI and NotI restriction sites for further cloning into pCI expression vector; Rho-tag (N); expressed in transfected cells; host or cells: HEK293
T5 sequence (Q8NGR6 whole entry C262W): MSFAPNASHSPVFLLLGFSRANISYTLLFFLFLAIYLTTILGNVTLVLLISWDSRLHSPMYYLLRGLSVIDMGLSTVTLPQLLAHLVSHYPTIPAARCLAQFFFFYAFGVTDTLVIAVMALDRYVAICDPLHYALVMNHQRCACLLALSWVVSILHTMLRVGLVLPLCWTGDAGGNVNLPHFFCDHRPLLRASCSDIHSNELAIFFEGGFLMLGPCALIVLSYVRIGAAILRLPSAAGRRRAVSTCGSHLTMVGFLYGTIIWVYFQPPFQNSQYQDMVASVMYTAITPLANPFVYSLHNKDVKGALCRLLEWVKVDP
Excerpt: as §11, §12, §3, §4

OR5L1 = target: T6, OR5L1 (Homo sapiens, UniProt Q8NGL2); experiment: Ca-imaging of OR5L1-transfected HEK293 cells; format: cell-based; parameters: key: ▪: 18 olfactory receptors responded to 32 odorants in related with specific anosmia; details: individual odorant 200 μM, significant response p<0.05
T6 construct: specific primers, which amplify the complete open reading frame; expressed in transfected cells; host or cells: HEK293
T6 sequence (Q8NGL2 whole entry): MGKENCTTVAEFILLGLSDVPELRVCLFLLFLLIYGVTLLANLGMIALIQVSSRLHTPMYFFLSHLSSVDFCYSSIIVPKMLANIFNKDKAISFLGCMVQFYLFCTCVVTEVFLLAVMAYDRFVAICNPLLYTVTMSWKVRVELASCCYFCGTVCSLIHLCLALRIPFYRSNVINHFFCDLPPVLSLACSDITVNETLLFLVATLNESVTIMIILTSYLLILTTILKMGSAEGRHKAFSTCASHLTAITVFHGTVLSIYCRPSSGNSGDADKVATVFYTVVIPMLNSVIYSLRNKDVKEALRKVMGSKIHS
Protocol: as §1, §2, §3, §4

OR4C16 = target: T7, OR4C16 (Homo sapiens, UniProt Q8NGL9); experiment: Ca-imaging of OR4C16-transfected HEK293 cells; format: cell-based; parameters: key to OR4C16 responded to odorant: ▪: 18 olfactory receptors responded to 32 odorants in related with specific anosmia
T7 construct: specific primers, which amplify the complete open reading frame; expressed in transfected cells; host or cells: HEK293
T7 sequence (Q8NGL9 whole entry): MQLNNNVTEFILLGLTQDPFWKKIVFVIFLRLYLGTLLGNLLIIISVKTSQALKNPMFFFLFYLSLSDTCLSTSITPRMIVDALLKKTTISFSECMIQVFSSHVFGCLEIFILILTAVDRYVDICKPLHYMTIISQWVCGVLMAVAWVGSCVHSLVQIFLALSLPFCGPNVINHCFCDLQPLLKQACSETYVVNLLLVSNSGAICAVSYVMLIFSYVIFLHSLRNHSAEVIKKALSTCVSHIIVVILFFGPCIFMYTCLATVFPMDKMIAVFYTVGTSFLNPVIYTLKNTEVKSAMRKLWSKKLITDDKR
Protocol: as §1, §2, §3, §4

OR5I1 = target: T8, OR5I1 (Homo sapiens, UniProt Q13606); experiment: Ca-imaging of OR5I1-transfected HEK293 cells; format: cell-based; parameters: key to OR5I1 responded to odorant: ▪: 18 olfactory receptors responded to 32 odorants in related with specific anosmia
T8 construct: specific primers, which amplify the complete open reading frame; expressed in transfected cells; host or cells: HEK293
T8 sequence (Q13606 whole entry): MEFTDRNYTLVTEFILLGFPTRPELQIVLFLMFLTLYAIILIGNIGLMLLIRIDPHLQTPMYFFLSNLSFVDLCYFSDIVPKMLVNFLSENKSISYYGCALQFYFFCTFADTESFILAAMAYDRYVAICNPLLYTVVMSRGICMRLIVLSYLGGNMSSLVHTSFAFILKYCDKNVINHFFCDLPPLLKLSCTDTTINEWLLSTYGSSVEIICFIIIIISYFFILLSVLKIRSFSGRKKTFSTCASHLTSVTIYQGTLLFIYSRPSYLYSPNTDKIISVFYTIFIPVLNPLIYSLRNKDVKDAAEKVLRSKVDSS
Protocol: as §1, §2, §3, §4

[2] = HEK293 cells, individual odorant 200 μM, significant response p<0.05

With `CC(C)CCC(=O)O` [Isocaproic acid] the “OR4C3 responded to odorant” value (OR4C3) was “▪”.

`CCC(C)=O` [Odorant 2-butanone, 2-Butanone] was tested, and the “OR10C1 responded to odorant” value (OR10C1) was “▪”.

`C[C@]12CCC(=O)C[C@@H]1CC[C@@H]1[C@@H]2CC[C@]2(C)C=CC[C@@H]12` [Androstenon, 5α-Androst-16-en-3-one] was tested, and the “Number of cell responses of OR1B1 (FIG. 8)” value (OR1B1) was 13, the “OR1B1 responded to odorant” value (OR1B1; Ca-imaging, HEK293 cells, individual odorant 200 μM, significant response p<0.05) was “▪” and the “Response of OR1B1 to odorant, in words” value (OR1B1; Ca-imaging, listed as androstenone) was “significantly (P<0.05) activated; also recorded: responded”. The “Number of cell responses, Experiment (OR1B1)” value (OR1B1; listed as Andorestenone) was 20, the “Number of cell responses, Experiment (OR1B1)” value (OR1B1; listed as androstenone) was 35 and the “Number of cell responses in controls (FIG. 8, 11, 12)” value [1] was 3. The “Number of cell responses, Control” value ([1]; odorant 200 μM, three times of measuring (Table 4, FIG. 5)) was 0, the “Response of OR1B1-574 in comparison to OR1B1 WT” value (OR1B1-574) was “not able to reproduce responses” and the “Response of OR1B1-688 in comparison to OR1B1 WT” value (OR1B1-688; listed as androstenone) was “no significantly different responses; also recorded: did not show any significant difference”. The “Response of OR1B1-789 in comparison to OR1B1 WT” value (OR1B1-789; listed as androstenone) was “no significantly different responses; also recorded: did not show any significant difference”.

For `C/C=C/C(=O)C1=C(C)CCCC1(C)C` [B-Damascone, β-Damascone], the “OR5L1 responded to odorant” value (OR5L1) was “▪” and the “OR4C3 responded to odorant” value (OR4C3) was “▪”.

With `C[C@]12CC[C@H]3[C@@H](CCC4=CC(=O)CC[C@@]43C)[C@@H]1CC[C@@H]2O` [testosterone] the “Number of cell responses of OR1B1 (FIG. 8)” value (OR1B1) was 12, the “Response of OR1B1 to odorant, in words” value (OR1B1; Ca-imaging) was “responded” and the “Number of cell responses in controls (FIG. 8, 11, 12)” value [1] was 1. The “Response of OR1B1-574 in comparison to OR1B1 WT” value (OR1B1-574) was “not able to reproduce responses”, the “Response of OR1B1-688 in comparison to OR1B1 WT” value (OR1B1-688) was “no significantly different responses; also recorded: did not show any significant difference” and the “Response of OR1B1-789 in comparison to OR1B1 WT” value (OR1B1-789) was “no significantly different responses; also recorded: did not show any significant difference”.

With `CCCCCC1CCC(=O)O1` (centres unmarked) [Aldehyde C18] the “OR4C16 responded to odorant” value (OR4C16; [2]) was “▪”, the “Response of OR4C16 to odorant, in words” value (OR4C16; single odorants 200 μM) was “responded” and the “OR5L1 responded to odorant” value (OR5L1) was “▪”.

For `CCCCCC1C(=O)CCC1CC(=O)OC` (centres unmarked) [Hedione, Hedion], the “OR10C1 responded to odorant” value (OR10C1) was “▪”.

For `CCCCCCCC=O` [Octanal], the “OR5I1 responded to odorant” value (OR5I1; [2]) was “▪” and the “Response of OR5I1 to odorant, in words” value (OR5I1; single odorants 200 μM) was “responded”.
